Experimental data: patent US20120165553A1, “IMMUNOSTIMULANT” (RIKEN, priority 2010, published 2012)

What was measured:
[1] = test system: mouse spleen cells (T cells and B cells); test: spleen cell proliferation caused by antigen stimulation (BrdU incorporation ELISA); format: cell-based; settings: BL 10 nM; antigen 10 µg/mL of ovalbumin; cultured for 3 days; spleen cells of ovalbumin/aluminum hydroxide immunised BALB/c mouse; FIG. 1
Experimental: The effect of BL on the spleen cell proliferation caused by an antigen stimulation was examined.
A mixed solution (0.2 mL) of […] of ovalbumin (Sigma-Aldrich Corporation) and 4 mg of aluminum hydroxide (Thermo Scientific Pierce Protein Research Products) was intraperitoneally administered to a BALB/c mouse (female, 8 to 12 weeks old) and the spleen was collected 2 weeks later. Cells were isolated from the spleen and cultured in RPMI-1640 medium containing 10% fetal bovine serum (Cansera International Inc.), 5×10^−5M β-mercaptoethanol (Wako Pure Chemical Industries, Ltd.), 20 U/mL penicillin (Meiji Seika Kaisha, Limited) and 100 μg/mL streptomycin (Meiji Seika Kaisha, Limited) at 37° C. under the presence of 5% CO2. Cells to which BL (Brassino Co., Ltd.) was added in a concentration of 10 nM and cells to which BL was not added were respectively stimulated by an antigen ([…] of ovalbumin), cultured for 3 days and measured for the incorporated BrdU in the detection of proliferating spleen cells using a cell proliferation ELISA BrdU colorimetric kit (Roche Applied Science).

macrophages [2] = test: cytokine mRNA expression in macrophages stimulated with LPS (real time PCR); format: cell-based, mouse; settings: 10 nM BL for 15 minutes, then LPS stimulation, RNA 1 hour later, relative to HPRT mRNA
Experimental: (§1) 3 mL of 3% thioglycolate medium (Difco Laboratories) was intraperitoneally administered to a BALB/c mouse (female, 8 to 12 weeks age), peritoneal cells were collected 3 days later and cultured in RPMI-1640 medium containing 10% fetal bovine serum (Cansera International Inc.), 5×10^−5M β-mercaptoethanol (Wako Pure Chemical Industries, Ltd.), 20 U/mL penicillin (Meiji Seika Kaisha, Limited) and 100 μg/mL streptomycin (Meiji Seika Kaisha, Limited) at 37° C. under the presence of 5% CO2. After culturing 1×10^6/mL of the peritoneal cells for 3 hours in a 6-well plate (2 mL/well), non-adherent cells were removed and adherent cells were tested as the macrophages. The macrophages were cultured for 15 minutes in the presence or absence of 10 nM BL, subsequently stimulated with R848 (InvivoGen) or LPS (Sigma-Aldrich Corporation) 100 ng/mL, and the RNA was collected 1 hour later using Rneasy Mini Kit (QIAGEN K. K.). Using a Primescript RT reagent kit (TAKARA BIO INC.), cDNA was synthesized from […] of the isolated RNA in accordance with the attached protocol and the real time PCR was carried out using Thermal Cycler Dice Real Time System II (TAKARA BIO INC.) to examine the changes of cytokine (IFN-α, IFN-β, IL-12 subunit p35, IL-12 subunit p40, TNF-α) mRNA expression.
The mRNA amounts are shown for IFN-α in FIG. 3, IFN-β in FIG. 4, IL-12 subunit p35 in FIG. 5, IL-12 subunit p40 in FIG. 6 and TNF-α in FIG. 7. The mRNA amount in each Figure is indicated as the relative amount to the mRNA amount of HPRT, which is the housekeeping gene.

macrophages [3] = test: cytokine mRNA expression in macrophages stimulated with R848 (real time PCR); format: cell-based, mouse; settings: 10 nM BL for 15 minutes, then R848 stimulation, RNA 1 hour later, relative to HPRT mRNA
Experimental: as §1, with “expression. […]” for “expression.”

BALB/c mouse = test: antigen (ovalbumin) specific antibody (IgG) production in mouse, serum ELISA; format: in vivo; settings: BL 0.2, 1 and 5 mg/Kg of body weight intraperitoneally every other day; serum 2 weeks later; absorbance at 450 nm; FIG. 2
Experimental: A mixed solution (0.2 mL) of […] of ovalbumin (Sigma-Aldrich Corporation) and 4 mg of aluminum hydroxide (Thermo Scientific Pierce Protein Research Products) was intraperitoneally administered to a BALB/c mouse (female, 8 to 12 weeks old) and BL dissolved in 0.2 mL PBS (0, 0.2, 1 and 5 mg/Kg of body weight) was intraperitoneally administered every other day. The serum was isolated 2 weeks later and measured for the production of immunoglobulin (IgG) specific to the antigen (ovalbumin) using ELISA. ELISA was carried out using a biotinylated anti-mouse IgG antibody (Southern Biotechnology Associates Inc.) as the secondary antibody, streptavidin-HRP (Prozyme, Inc.) and a TMB Microwell Peroxidase Substrate (Kirkegaard & Perry Laboratories, Inc.) as the colorimetric substrate, and the absorbance at 450 nm was measured.

CC(C)[C@H](C)[C@@H](O)[C@H](O)[C@@H](C)[C@H]1CC[C@H]2[C@@H]3COC(=O)[C@H]4C[C@H](O)[C@H](O)C[C@]4(C)[C@H]3CC[C@]12C [BL, Brassinolide]
spleen cell proliferation induced by the antigen stimulation (incorporated BrdU) [1]: significantly promoted
IL-12 p35 mRNA expression induction (macrophages [2]; FIG. 5): enhancing
IL-12 p40 mRNA expression induction (macrophages [2]; FIG. 6): enhancing
TNF-α mRNA expression induction (macrophages [2]; FIG. 7): enhancing
IFN-α mRNA expression induction (macrophages [3]; FIG. 3): enhancing
IFN-β mRNA expression induction (macrophages [3]; FIG. 4): enhancing
antigen specific antibody (IgG) production induced by ovalbumin and aluminum hydroxide (BALB/c mouse): significantly promoted
